What was measured:
rat [1] = settings: Sub-acute repeat dose toxicity; sprague dawley; Oral; Gavage/Intubation; dose end: 10 day; group: systemic; systemic / clinical chemistry / sorbitol dehydrogenase / sorbitol dehydrogenase
dog [2] = settings: Sub-acute repeat dose toxicity; beagle; Oral; Gavage/Intubation; dose end: 30 day; group: systemic; systemic / in life observation / clinical signs / emesis + systemic / clinical chemistry / [other] / [other] + systemic / clinical chemistry…
dog [3] = settings: Sub-acute repeat dose toxicity, beagle, Oral, Gavage/Intubation, dose end: 10 day, group: systemic
rat [4] = settings: Sub-acute repeat dose toxicity, sprague dawley, Oral, Gavage/Intubation, dose end: 28 day, group: systemic
rat [5] = settings: Subchronic oral toxicity in rodents, fischer, Feed, dose end: 13 week, group: systemic, systemic / clinical chemistry / cholesterol / cholesterol + systemic / organ weight / kidney / relative to body weight + systemic / organ …
mouse = settings: Subchronic oral toxicity in rodents, cd1, Feed, dose end: 13 week
rat [6] = settings: Combined chronic toxicity/carcinogenicity, sprague dawley, Oral, Feed, dose end: 26 month, group: systemic
dog [7] = settings: Chronic toxicity; beagle; Oral; Feed; dose end: 52 week; group: systemic; systemic / clinical chemistry / alkaline phosphatase (alp/alk) / alkaline phosphatase (alp/alk) + systemic / organ weight / liver / absolute…
rat [8] = settings: Combined chronic toxicity/carcinogenicity; fischer; Oral; Feed; dose end: 25 month; group: systemic; systemic / clinical chemistry / creatinine / creatinine + systemic / clinical chemistry / gamma glutamyl transpeptides (gtp) / gamma …
rabbit = settings: Prenatal developmental toxicity study, dutch, Oral, Gavage/Intubation, dose end: 27 GD
rat [9] = settings: Subchronic oral toxicity in rodents, sprague dawley, Feed, dose end: 90 day, group: systemic, systemic / organ weight / liver / absolute + systemic / organ weight / liver / relative to body weight + systemic / organ weight / thyroid …
[10] = systemic / in life observation / clinical signs / arrhythmia
[11] = systemic / in life observation / clinical signs / arrhythmia + systemic / in life observation / clinical signs / convulsions
[12] = systemic / clinical chemistry / cholesterol / cholesterol + systemic / clinical chemistry / sorbitol dehydrogenase / sorbitol dehydrogenase…
[13] = systemic / organ weight / liver / absolute
[14] = group: cholinesterase, cholinesterase / cholinesterase / cholinesterase / brain cholinesterase (che)
[15] = group: systemic, systemic / organ weight / liver / absolute + systemic / organ weight / liver / relative to body weight + systemic / organ weight / liver / …
[16] = systemic / pathology microscopic / kidney / nephropathy + systemic / pathology microscopic / liver / degeneration
[17] = systemic / pathology microscopic / kidney / nephropathy + systemic / pathology microscopic / liver / degeneration + systemic / pathology …
[18] = group: developmental, systemic / in life observation / body weight / fetal weight
[19] = group: maternal, reproductive / reproductive performance / aborted / aborted + systemic / in life observation / body weight / body weight gain + systemic / …

## Cc1nc(C)nc(N2C[C@@H](C)N(c3ccnc([C@@H](C)O)n3)[C@@H](C)C2)n1
Rat [1]
  LEL: 1 mg/kg/day
  LOAEL: > 10 mg/kg/day
  NEL: < 1 mg/kg/day
  NOAEL: ≥ 10 mg/kg/day
Dog [2]
  LEL: 6 mg/kg/day
  LOAEL: > 6 mg/kg/day
  NEL: < 6 mg/kg/day
  NOAEL: ≥ 6 mg/kg/day
Dog [3]; [10]
  LEL: 1 mg/kg/day
  NEL: < 1 mg/kg/day
Dog [3]; [11]
  LOAEL: > 6 mg/kg/day
  NOAEL: ≥ 6 mg/kg/day
Rat [4]; [12]
  LOAEL: > 20 mg/kg/day
  NOAEL: ≥ 20 mg/kg/day
Rat [4]; [13]
  LEL: 2 mg/kg/day
  NEL: < 2 mg/kg/day

## CCCCOCN(C(=O)CCl)c1c(CC)cccc1CC [Butachlor]
Rat [5]
  LEL: 58.7 mg/kg/day
  LOAEL: 58.7 mg/kg/day
  NEL: 17.5 mg/kg/day
  NOAEL: 17.5 mg/kg/day
mouse; [14]
  LEL: 150 mg/kg/day
  LOAEL: > 900 mg/kg/day
  NEL: < 150 mg/kg/day
  NOAEL: ≥ 900 mg/kg/day
mouse; [15]
  LEL: 150 mg/kg/day
  LOAEL: 150 mg/kg/day
  NEL: < 150 mg/kg/day
  NOAEL: < 150 mg/kg/day
Rat [6]; [16]
  LOAEL: 4.5 mg/kg/day
  NOAEL: < 4.5 mg/kg/day
Rat [6]; [17]
  LEL: 4.5 mg/kg/day
  NEL: < 4.5 mg/kg/day
Dog [7]
  LEL: 25 mg/kg/day
  LOAEL: 25 mg/kg/day
  NEL: 5 mg/kg/day
  NOAEL: 5 mg/kg/day
Rat [8]
  LEL: 37.1 mg/kg/day
  LOAEL: 37.1 mg/kg/day
  NEL: 3.65 mg/kg/day
  NOAEL: 3.65 mg/kg/day
rabbit; [18]
  LEL: 150 mg/kg/day
  LOAEL: 150 mg/kg/day
  NEL: 50 mg/kg/day
  NOAEL: 50 mg/kg/day
rabbit; [19]
  LEL: 150 mg/kg/day
  LOAEL: 150 mg/kg/day
  NEL: 50 mg/kg/day
  NOAEL: 50 mg/kg/day
Rat [9]
  LEL: 50 mg/kg/day
  LOAEL: 50 mg/kg/day
  NEL: < 50 mg/kg/day
  NOAEL: < 50 mg/kg/day
